Legend:
[1] = molecular target: Histone deacetylase 1 (Homo sapiens, UniProt Q13547); experiment: Inhibition of HDAC1 (unknown origin) using RHKK(Ac)AMC fluorogenic peptide as substrate preincubated for 10 mins followed by substrate addition for 1 hr in presence of ATP by fluoroscence based assay
[2] = system: MDA-MB-231; experiment: Antiproliferative activity against human MDA-MB-231 cells incubated for 72 hrs by luminescence assay; assay type: functional, cell-based; details: MDA-MB-231, 72 h
[3] = system: A549; experiment: Antiproliferative activity against human A549 cells assessed as remaining cell activity at 2 uM incubated for 72 hrs by luminescence assay relative to control; assay type: functional
[4] = system: A549; experiment: Antiproliferative activity against human A549 cells incubated for 72 hrs by luminescence assay; assay type: functional, cell-based; details: A549, 72 h
[5] = system: HCT-116; experiment: Antiproliferative activity against human HCT-116 cells incubated for 72 hrs by luminescence assay; assay type: functional, cell-based; details: HCT-116, 72 h
[6] = system: CWR22R; experiment: Antiproliferative activity against human 22Rv1 cells incubated for 72 hrs by luminescence assay; assay type: functional, cell-based; details: 22Rv1, 72 h
[7] = system: DOHH-2; experiment: Antiproliferative activity against human DOHH-2 cells incubated for 72 hrs by luminescence assay; assay type: functional, cell-based; details: DOHH-2, 72 h
[8] = system: CCRF-CEM; experiment: Antiproliferative activity against human CCRF-CEM cells incubated for 72 hrs by luminescence assay; assay type: functional, cell-based
[9] = system: MOLT-4; experiment: Antiproliferative activity against human MOLT-4 cells incubated for 72 hrs by luminescence assay; assay type: functional, cell-based; details: MOLT-4, 72 h
[10] = system: RS4-11; experiment: Antiproliferative activity against human RS4-11 cells incubated for 72 hrs by luminescence assay; assay type: functional, cell-based; details: RS4-11, 72 h
[11] = Metabolic stability in mouse liver microsomes assessed as half life measured for 75 to 130 mins by LC-MS/MS analysis; assay type: ADME, Microsome; details: time 75-130 min
[12] = Metabolic stability in dog liver microsomes assessed as half life measured for 75 to 130 mins by LC-MS/MS analysis; assay type: ADME, Canis lupus familiaris, Microsome; details: time 75-130 min
[13] = Metabolic stability in rat liver microsomes assessed as half life measured for 75 to 130 mins by LC-MS/MS analysis; assay type: ADME, Microsome; details: time 75-130 min
[14] = Metabolic stability in monkey liver microsomes assessed as intrinsic clearance measured for 75 to 130 mins by LC-MS/MS analysis; assay type: ADME, Macaca fascicularis, Microsome; details: cynomolgus monkey, time 75-130 min, read-out: CLH
[15] = Metabolic stability in rat liver microsomes assessed as intrinsic clearance measured for 75 to 130 mins by LC-MS/MS analysis; assay type: ADME, Microsome; details: time 75-130 min, read-out: CLH
[16] = Cmax in ICR mouse at 25 mg/kg, po measured upto 24 hrs by LC-MS/MS analysis; assay type: ADME, organism-based; set-up: time < 24 hrs, dose 25 mg/kg, route po; details: in vivo
[17] = MRT in ICR mouse at 25 mg/kg, po measured upto 24 hrs by LC-MS/MS analysis; assay type: ADME, organism-based; details: in vivo
[18] = Cmax in CB.17 SCID mouse xenografted with human TMD8 cells at 25 mg/kg, po measured upto 24 hrs by LC-MS/MS analysis; assay type: ADME, organism-based; set-up: dose 25 mg/kg, time < 24 hrs, route po; details: in vivo
[19] = Cmax in CB.17 SCID mouse xenografted with human TMD8 cells at 50 mg/kg, po measured upto 24 hrs by LC-MS/MS analysis; assay type: ADME, organism-based; set-up: dose 50 mg/kg, time < 24 hrs, route po; details: in vivo
[20] = Cmax in CB.17 SCID mouse xenografted with human TMD8 cells at 100 mg/kg, po measured upto 24 hrs by LC-MS/MS analysis; assay type: ADME, organism-based; set-up: time < 24 hrs, dose 100 mg/kg, route po; details: in vivo
[21] = AUC (0 to t) in CB.17 SCID mouse xenografted with human TMD8 cells at 100 mg/kg, po measured upto 24 hrs by LC-MS/MS analysis; assay type: ADME, organism-based; set-up: dose 100 mg/kg, time < 24 hrs, route po; details: in vivo
[22] = AUC (0 to infinity) in CB.17 SCID mouse xenografted with human TMD8 cells at 50 mg/kg, po measured upto 24 hrs by LC-MS/MS analysis; assay type: ADME, organism-based; set-up: dose 50 mg/kg, time < 24 hrs, route po; details: in vivo
[23] = MRT (0 to t) in CB.17 SCID mouse xenografted with human TMD8 cells at 50 mg/kg, po measured upto 24 hrs by LC-MS/MS analysis; assay type: ADME, organism-based; details: in vivo
[24] = MRT (0 to t) in CB.17 SCID mouse xenografted with human TMD8 cells at 100 mg/kg, po measured upto 24 hrs by LC-MS/MS analysis; assay type: ADME, organism-based; details: in vivo
[25] = MRT(0 to infinity) in CB.17 SCID mouse xenografted with human TMD8 cells at 50 mg/kg, po measured upto 24 hrs by LC-MS/MS analysis; assay type: ADME, organism-based; details: in vivo
[26] = system: TMD8; experiment: Induction of apoptosis in human TMD8 cells assessed as viable cells at 0.5 uM incubated for 24 hrs by Annexin V-FITC/PI staining based flow cytometric analysis (reference value: 96.4%); assay type: functional; details: read-out: Activity
[27] = system: TMD8; experiment: Induction of apoptosis in human TMD8 cells assessed as early apoptotic cells at 0.5 uM incubated for 24 hrs by Annexin V-FITC/PI staining based flow cytometric analysis (reference value: 0.24%); assay type: functional
[28] = system: TMD8; experiment: Induction of apoptosis in human TMD8 cells assessed as late apoptotic cells at 0.5 uM incubated for 24 hrs by Annexin V-FITC/PI staining based flow cytometric analysis (reference value: 1.54%); assay type: functional
[29] = system: TMD8; experiment: Induction of apoptosis in human TMD8 cells assessed as necrotic cells at 0.5 uM incubated for 24 hrs by Annexin V-FITC/PI staining based flow cytometric analysis (RVB=1.85%); assay type: functional
[30] = system: TMD8; experiment: Induction of apoptosis in human TMD8 cells assessed as viable cells at 1 uM incubated for 24 hrs by Annexin V-FITC/PI staining based flow cytometric analysis (reference value: 96.4%); assay type: functional; details: read-out: Activity
[31] = system: TMD8; experiment: Induction of apoptosis in human TMD8 cells assessed as late apoptotic cells at 1 uM incubated for 24 hrs by Annexin V-FITC/PI staining based flow cytometric analysis (reference value: 1.54%); assay type: functional
[32] = system: TMD8; experiment: Induction of apoptosis in human TMD8 cells assessed as necrotic cells at 1 uM incubated for 24 hrs by Annexin V-FITC/PI staining based flow cytometric analysis (reference value: 1.85%); assay type: functional
[33] = system: TMD8; experiment: Induction of apoptosis in human TMD8 cells assessed as viable cells at 2 uM incubated for 24 hrs by Annexin V-FITC/PI staining based flow cytometric analysis (reference value: 96.4%); assay type: functional; details: read-out: Activity
[34] = system: TMD8; experiment: Induction of apoptosis in human TMD8 cells assessed as late apoptotic cells at 2 uM incubated for 24 hrs by Annexin V-FITC/PI staining based flow cytometric analysis (reference value: 1.54%); assay type: functional
[35] = system: TMD8; experiment: Induction of apoptosis in human TMD8 cells assessed as necrotic cells at 2 uM incubated for 24 hrs by Annexin V-FITC/PI staining based flow cytometric analysis (reference value: 1.85%); assay type: functional
[36] = system: TMD8; experiment: Induction of apoptosis in human TMD8 cells assessed as early apoptotic cells at 4 uM incubated for 24 hrs by Annexin V-FITC/PI staining based flow cytometric analysis (reference value: 0.24%); assay type: functional
[37] = system: TMD8; experiment: Induction of apoptosis in human TMD8 cells assessed as late apoptotic cells at 4 uM incubated for 24 hrs by Annexin V-FITC/PI staining based flow cytometric analysis (reference value: 1.54%); assay type: functional
[38] = system: TMD8; experiment: Induction of apoptosis in human TMD8 cells assessed as necrotic cells at 4 uM incubated for 24 hrs by Annexin V-FITC/PI staining based flow cytometric analysis (reference value: 1.85%); assay type: functional

Sequence of Histone deacetylase 1 (Q13547 whole entry): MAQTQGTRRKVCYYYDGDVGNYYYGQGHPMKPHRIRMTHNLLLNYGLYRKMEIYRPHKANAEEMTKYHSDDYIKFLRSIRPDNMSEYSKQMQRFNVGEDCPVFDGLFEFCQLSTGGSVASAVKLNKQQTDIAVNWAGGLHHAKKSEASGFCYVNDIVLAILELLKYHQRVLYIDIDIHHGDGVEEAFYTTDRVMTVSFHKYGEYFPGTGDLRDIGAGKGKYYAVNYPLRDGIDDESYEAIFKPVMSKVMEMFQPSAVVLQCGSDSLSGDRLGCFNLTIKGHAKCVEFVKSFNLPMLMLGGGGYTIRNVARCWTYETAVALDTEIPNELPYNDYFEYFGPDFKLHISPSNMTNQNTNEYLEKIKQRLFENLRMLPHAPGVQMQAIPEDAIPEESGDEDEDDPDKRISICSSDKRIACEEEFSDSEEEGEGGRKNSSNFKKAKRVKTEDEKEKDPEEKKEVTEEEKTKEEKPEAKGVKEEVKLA

## Nc1ccccc1NC(=O)c1ccc(CN2CCC/C(=C\c3ccccn3)C2=O)cc1
[1]
  IC50: 84.9 nM
[2]
  IC50: 2290 nM
[3]
  Activity: 48.53%
[4]
  IC50: 2850 nM
[5]
  IC50: 1160 nM
[6]
  IC50: 1140 nM
[7]
  IC50: 390 nM
[8]
  IC50: 480 nM
[9]
  IC50: 380 nM
[10]
  IC50: 470 nM
[11]
  half-life: 2.88 h
[12]
  half-life: 17.9 h
[13]
  half-life: 1.75 h
[14]
  microsomal CLint: 14.1 µL/min/mg
[15]
  microsomal CLint: 13.2 µL/min/mg
[16]
  Cmax: 3100 ng/mL
[17]
  MRT: 2.6 h
[18]
  Cmax: 1700 ng/mL
[19]
  Cmax: 14700 ng/mL
[20]
  Cmax: 10700 ng/mL
[21]
  AUC(0-t) at 24 h: 9740 ng·h/mL
[22]
  AUC(0-inf): 9730 ng·h/mL
[23]
  MRT last at 24 h: 0.812 h
[24]
  MRT last at 24 h: 1.43 h
[25]
  MRT inf: 0.821 h
[26]
  viability at 0.5 µM: 95.8%
[27]
  Activity: 0.34%
[28]
  Activity: 1.59%
[29]
  Activity: 2.29%
[30]
  viability at 1 µM: 92.2%
[31]
  Activity: 3.13%
[32]
  Activity: 3.64%
[33]
  viability at 2 µM: 75.3%
[34]
  Activity: 7.94%
[35]
  Activity: 6.52%
[36]
  Activity: 24.8%
[37]
  Activity: 9.64%
[38]
  Activity: 8.19%
